Assay results: patent US6589977B1, “Pyrrole derivatives and cell death inhibitors” (Sagami Chemical Research Center, priority 1999, dated 2003)

What was measured:
[1] = tested on: Porcine ovarian granulosa cells (POGC); test: Inhibition of SNP-induced apoptosis of porcine ovarian granulosa cells; format: cell-based; details: SNP 0.5 mM; cells observed after 18 hours
Excerpt: Porcine ovaries were washed with PBS buffer, and Porcine ovarian granulosa cells (POGC) were collected by aspiration from follicles with a syringe. Cell fraction was recovered as a precipitate by centrifugation of the suspension. The operation of suspending the cell fraction into PBS buffer and subjecting the resulting suspension to centrifugation was repeated three times to wash the cells. The POGC obtained as a precipitate were suspended again into a culture medium (DMEM containing 10% fetal bovine serum) and cell clumps were disrupted by pipetting. The cell suspension was passed through a mesh to remove contaminating tissue fragments, and then pipetted in 24-well plates for cell culture. The cell suspension was cultured for 2 days in a CO2 incubator according to a conventional procedure (37° C., 5% CO2). Then, the medium was refreshed to remove floating cells and the cultivation was continued further 2 to 3 days until the cells reached subconfluency (0.7 to 2×10^5 cell/well). After the attaching cells were washed with serum-free medium, they were cultured in a serum-free DMEM (containing 5 μg/mL of transferrin, and 40 ng/mL of hydrocortisone, 4 mg/mL of bovine serum albumin (BSA), 100 nM androstendione) and it was possible to continue to culture cells with relatively immature differentiation. […] The cell death was also confirmed by MTT assay. Then, various concentrations of the test compounds were added to the present culture system and the cells were observed after 18 hours.

[2] = tested on: cerebellar granule cells; test: Inhibition of bilirubin-induced death of cerebellar granule cells; format: cell-based, rats; details: compound 10 μM added prior to bilirubin (10 μg/ml); after 23 hours
Description: (§1) According to a known method (A Dissection and Tissue Culture Manual of the Nervous System, p. 211, 1989, Alan R, Liss, Inc.), cerebellar granule cells were isolated from the cerebellum of 7 days old rats and cultured. Namely, after conducting isolation procedures described in the above literature, the resulting cells were resuspended in DMEM containing 10% fetal bovine serum, 25 mM KCl and 2 mM glutamine, and seeded in poly-lysine coated plates. After the cells were cultured in a CO2 incubator for 48 hours according to a conventional method, cytosine-1-β-D(+)-arabinofuranoside (Ara-C) (10 μM) was added thereto, and the cell was continued to culture. The following experiments were conducted with the cells of 7 to 14 days old from the start day of the cultivation, the cells having completed neurite extension sufficiently.
Neonatal jaundice is known to induce severe brain damages by way of abnormally high concentration of bilirubin in the body. […] When the test compound 15 (10 μM) was added prior to the bilirubin addition, more than 95% of cells were alive on an observation made similarly after 23 hours.

[3] = tested on: cerebellar granule cells; test: Inhibition of sodium azide-induced death of cerebellar granule cells; format: cell-based, rats; details: compound 10 μM; sodium azide (10 mM); after 2 hours
Description: as §1, with “After the cells were cultured in a CO2 incubator for 48 hours according to a conventional method, cytosine-1-β-D(+)-arabinofuranoside (Ara-C) (10 μM) was added thereto, and the cell was continued to culture.” left out

[4] = tested on: cerebellar granule cells; test: Inhibition of antimycin A-induced death of cerebellar granule cells; format: cell-based, rats; details: compound 10 μM; antimycin A (5 μM); after 2 hours
Description: as §1
When the test compound 15 (10 μM) coexisted prior to the antimycin A addition, more than 95% of cells were alive on an observation made similarly after 2 hours.

[5] = tested on: cerebellar granule cells; test: Inhibition of FCCP-induced death of cerebellar granule cells; format: cell-based, rats; details: compound 10 μM; FCCP (5 μM); after 2 hours
Description: as §1
When the test compound 15 (10 μM) coexisted prior to the FCCP addition, 80% of cells were alive on an observation similarly made after 2 hours.

[6] = tested on: cerebellar granule cells; test: Inhibition of low potassium medium-induced death of cerebellar granule cells; format: cell-based, rats; details: compound 10 μM; low potassium medium (5 mM KCl); after 18 hours
Description: as §1
It is known that neuronal cells undergo cell death when they are cultured in a medium of low potassium (Proc. Natl. Acad. Sci. U.S.A., volume 90, p 10989, 1993). […] When the test compound 1 (10 μM), the test compound 10 (10 μM), or the test compound 15 (10 μM)coexisted, 50%, 80%, and 85% of cells were respectively alive on an observation made similarly after 18 hours.

[7] = tested on: cerebellar granule cells; test: Inhibition of glutamate-induced death of cerebellar granule cells; format: cell-based, rats; details: compound 10 μM; glutamate (1 mM); after 6 hours
Description: as §1
Medium of cerebellar granule cells cultured for 14 days as described in Test Example 3 was replaced with DMEM containing 10% of dialyzed fetal bovine serum and subjected to a further overnight culture. […] When the test compound 15 (10 μM) coexisted, more than 95% of cells were alive on an observation even after 6 hours.

[8] = tested on: Hela 3S cells; test: Anti-cell death effect on Hela 3S cells cultured in Krebs Ringer Buffer; format: cell-based, human; details: compound 10 μM
Description: Hela 3S cells (culture medium: DMEM containing 10% fetal bovine serum), a cell line derived from human cervical cancer, were seeded into multi 48 well plates and cultured in a CO2 incubator according to conventional procedures. Confirming the subconfluency of a cell culture, the medium was replaced with Krebs Ringer Buffer (120 mM NaCl, […], 1 mM KH2PO4, […], 20 mM HEPES, pH 7.4, 2.57 g/L glucose, 0.05 g/L Phenol Red) and washed three times with the same buffer and cultivation continued in the same buffer. […] When the test compound 1 (10 μM) or the test compound 15 (10 μM) was added in the present culture system and cultivation continued similarly, the proportion of normal cells increased 59% or 77% respectively, and the proportion of necrosis-like cells decreased (1% or 0%, respectively), indicating the anti-cell death effects.

[9] = tested on: erythrocytes; test: Inhibition of hydrogen peroxide-induced hemolysis of erythrocytes; format: cell-based, Human; details: compound 10 μM added prior to hydrogen peroxide (300 μM); after 24 hours
Description: Human blood was collected and precipitated by a centrifugation (1000 rpm, 5 min) and the precipitate containing erythrocytes was washed three times with PBS and resuspended (about 5×10^8 cells/ml) with DMEM containing 10% fetal bovine serum. Cell suspensions were dispensed into a 48-well plate to become subconfluent (about 5×10^5 cells/0.5 ml/well). When hydrogen peroxide (300 μM) was added and cultivation continued for 24 hours, more than 95% of erythrocytes underwent hemolysis and become dark and ghost-like on an observation under a light microscopy.

[10] = tested on: cerebellar granule cells; test: Inhibition of MPPI-induced death of cerebellar granule cells (Parkinson model); format: cell-based, rats; details: compound 1 μM added prior to MPPI (200 μM); 15 DIV cells; after 18 hours
Description: as §1, with “The following experiments were conducted with the cells of 7 to 14 days old from the start day of the cultivation, the cells having completed neurite extension sufficiently.” left out
In Parkinson's disease the dopaminergic neurons in the substantia nigra and corpus striatum in the mid-brain are selectively destroyed. Because following administration of MPTP(1-methyl-4-phenyl-1,2,3,6-tetrahydropyridine) the similar selective destruction of the dopaminergic neurons and Parkinson's disease-like symptoms are observed, the administration system of MPTP is generally employed as an in vivo model of the onset of Parkinson's disease. […]

For `Cc1ccc2[nH]cc(-c3cn(C)cc3-c3c[nH]c4ccc(C)cc34)c2c1` [Compound 15], the “MEC (Minimum effective concentration for more than 95% of inhibition of cell death)” value [1] was 0.05 µM, the cells alive [2] was “more than 95%” and the cells alive [3] was “more than 95%”. The cells alive [4] was “more than 95%”, the cells alive [5] was 80% and the cells alive [6] was 85%. For the same compound, the cells alive [7] was “more than 95%”, the “proportion of necrosis-like cells” value ([8]; after 5 hours (11% without compound)) was 0% and the “proportion of normal cells” value ([8]; after 5 hours (42% normal without compound)) was 77%. The inhibition of hemolysis [9] was “almost complete inhibition of hemolysis” and the cells alive [10] was “more than 95%”.
